Data: US10391137B2, “Platelet-derived growth factor-BB production promotor, and mesenchymal stem cell production accelerator, stem cell stabilizer and dermal regenerator comprising the same” (Shiseido Company, Ltd., priority 2011, dated 2019)

System: PDGF-B gene expression in human vascular endothelial cells HUVEC
Experiment: Evaluation of PDGF-BB production-promoting effect in vascular endothelial cells (PDGF-B mRNA, quantitative RT-PCR)
Assay type: cell-based
Conditions: 10 ppm in medium, cultured 2 days, PDGF-BB mRNA vs. solvent control, G3PDH internal standard
Procedure: Human vascular endothelial cells HUVEC were subcultured with EGM-2 medium (Sanko Junyaku Co., Ltd.), and cells of the 4th subculture were suspended in VEGF-A-free Humedia-EG2 medium (Kurabo Industries, Ltd.) and seeded in a collagen-coated 24-well multiplate (Asahi Glass Co., Ltd.) at a 20,000 cell ratio, and culturing was conducted in the presence of 5% CO2 for 3-5 days until the cells reached confluence at 37° C. After exchange with Humedia-EG2 medium (Kurabo Industries, Ltd.) containing each sample added to the specified concentration or an added solvent dissolving each evaluation sample, culturing was continued for 2 days. The mRNA was extracted and purified from the cultured cells using an RNA extraction reagent MagNA Pure LC mRNA HS kit (Roche) and an automatic nucleic acid extraction apparatus MagNA Pure LC 1.0 Instrument (Roche), according to the manufacturer's protocol. For each sample, an equal volume of mRNA was used as template for one-step quantitative real time (RT)-PCR of the PDGF-B gene using primer pairs of SEQ ID NO: 1 and 2 listed below, the reaction reagent QuantiFast SYBR Green RT-PCR Kit (Qiagen) and a LightCycler reactor (Roche). The composition conditions were according to the protocol by Qiagen. […]

Compound	PDGF-BB expression (vs. control)
O=P(O)(O)O[C@H]1[C@H](OP(=O)(O)O)[C@@H](OP(=O)(O)O)[C@H](OP(=O)(O)O)[C@@H](OP(=O)(O)O)[C@H]1OP(=O)(O)O [Phytic acid, phytic acid]	1.20
O[C@H]1[C@H](O)[C@@H](O)[C@H](O)[C@@H](O)[C@H]1O [Inositol, myo-inositol]	1.37
